We go through 41 molecules from patent US10336735B2, “Small molecule inhibitors of fibrosis” (THE CALIFORNIA INSTITUTE FOR BIOMEDICAL RESEARCH, priority 2014, dated 2019).

By EC50 is commonly meant the concentration giving half of the maximal effect.

One test concerns primary human lung fibroblasts and primary rodent HSCs. The test can be described thus: High content imaging assay (α-SMA staining, cell morphology) of fibroblast to myofibroblast transdifferentiation, confirmed by Western blot and RT-PCR. As to conditions: Homo sapiens, Fibroblast; imaging and western based activity. The source says:
High content imaging assays have been established, using primary human lung fibroblasts and primary rodent HSCs, that enable the identification of small molecules that either inhibit myofibroblast formation/activation or induce the reversion of activated myofibroblasts to a quiescent fibroblast state. Conditions, involving serum starvation and subsequent TGF-β treatment, have been identified that facilitate robust in vitro transdifferentiation in a miniaturized (384 well plate) format that is amenable to high throughput small molecule screening. The inhibition assay is based on α-SMA immunofluorescent staining and cell morphology changes associated with fibroblast to myofibroblast transdifferentiation, Using the selective ALK-5 TGF-β1 receptor inhibitor ([…]) as a positive control, the inhibition assay has been used to initiate a screen of a collection of ˜100,000 small molecules that consists of bioactive small molecules and a diversity set that has been assembled based on 2D and 3D structural diversity and inherent “drug-likeness” properties. Preliminary screening led to the identification of multiple previously identified anti-fibrotic molecules.
A high content imaging assay, based on α-SMA staining and cell morphological changes associated with fibroblast to myofibroblast transdifferentiation, was established using primary human lung fibroblasts and primary rodent HSCs. Conditions, involving serum starvation and subsequent TGF-β treatment, were identified that facilitate robust in vitro transdifferentiation in a miniaturized (384 well plate) format that is amenable to high throughput small molecule screening. A selective ALK-5 TGF-β1 receptor inhibitor (SB-431542) was used as a positive control. […] This assay was used to evaluate compounds of Formula (I), (Ia), (II), (IIa), (III), (IIIa), (IV), (IVa), (IVb), (V), (Va), (VI), (VIa), (VIb), (VIc), (VII), (VIIa), (VIII), (VIIIa), (IX), (IXa), (X), or (Xa) generated from medicinal chemistry efforts.
The activity of Itraconazole and compounds of Formula (I), (Ia), (II), (IIa), (III), (IIIa), (IV), (IVa), (IVb), (V), (Va), (VI), (VIa), (VIb), (VIc), (VII), (VIIa), (VIII), (VIIIa), (IX), (IXa), (X), or (Xa) was confirmed by analyzing changes in gene expression of multiple genes associated with fibroblast to myofibroblast transdifferentiation using biochemical methods (i.e., Western blot and RT-PCR). These 4-day assays were used to evaluate sets of 6 compounds at a time in 4-point dose response fashion.
The EC50 for (imaging and western based) activity is graded as: +++=<500 nM; ++=500 nM to 5 μM; +=5 to 30 μM); −=>30 μM; NT=Not Tested.
For `CCC(C)n1ncn(-c2ccc(N3CCN(c4ccc(OC[C@@H]5CO[C@@](Cc6ccnnc6)(c6ccc(OC(F)(F)F)cc6)O5)cc4)CC3)cc2)c1=O` (some centres unmarked) [Compound 135], the 50% effective concentration (EC50) is under 0.5 µM.

`CCC(C)n1ncn(-c2ccc(N3CCN(c4cccc(OC[C@@H]5CO[C@@](Cn6nccn6)(c6ccc(Cl)cc6Cl)O5)c4)CC3)cc2)c1=O` (some centres unmarked) [Compound 78] came in with an EC50 of 0.5 to 5 µM.

Regarding `CCC(C)n1ncn(-c2ccc(N3CCN(c4ccc(OC[C@@H]5CO[C@@](Cn6nccn6)(c6ccc(Cl)cc6Cl)O5)cc4)CC3)cc2)c1=S` (some centres unmarked) [Compound 75], the half-maximal effective concentration (EC50) was over 30 µM.

With `CCC(C)n1ncn(-c2ccc(N3CCN(c4ccc(OC[C@@H]5CO[C@@](Cn6cccn6)(c6ccccc6)O5)cc4)CC3)cc2)c1=O` (some centres unmarked) [Compound 48], the EC50 was under 0.5 µM.

In the case of `CCC(C)n1ncn(-c2ccc(N3CCN(c4cc(C)c(OC[C@@H]5CO[C@@](Cn6nccn6)(c6ccccc6)O5)c(C)c4)CC3)cc2)c1=O` (some centres unmarked) [Compound 61], the half-maximal effective concentration (EC50) was 5 to 30 µM.

On to `CCC(CC)n1ncn(-c2ccc(N3CCN(c4ccc(OC[C@H]5CO[C@](Cn6nccn6)(c6ccc(Cl)cc6Cl)O5)cc4F)CC3)cc2)c1=O` [Compound 165], for which the EC50 is under 0.5 µM.

As to `CCC(C)n1ncn(-c2ccc(N3CCN(c4ccc(OC(C)[C@@H]5CO[C@@](Cn6nccn6)(c6ccccc6)O5)cc4)CC3)cc2)c1=O` (some centres unmarked) [Compound 140], the EC50 lay in the range of 5 to 30 µM.

Molecule `CC[C@H](C)n1ncn(-c2ccc(N3CCN(c4ccc(OC[C@@H]5CO[C@@](Cn6cccn6)(c6ccccc6)O5)cc4)CC3)cc2)c1=O` [Compound 168] displayed an EC50 of under 0.5 µM.

Take `CCC(C)n1ncn(-c2ccc(N3CCN(c4ccc(OC[C@@H]5CO[C@@](CCn6nccn6)(c6ccc(Cl)cc6Cl)O5)cc4)CC3)cc2)c1=O` (some centres unmarked) [Compound 52]: the EC50 is under 0.5 µM.

For the molecule `CC[C@@H](C)n1ncn(-c2ccc(N3CCN(c4ccc(OC[C@@H]5CO[C@@](Cn6cccn6)(c6ccccc6)O5)cc4)CC3)cc2)c1=O` [Compound 169], the EC50 is under 0.5 µM.

`CCC(C)n1ncn(-c2ccc(N3CCN(c4ccc(OC[C@@H]5CO[C@@](Cn6cccn6)(c6ccc(C(F)(F)F)cc6)O5)cc4)CC3)cc2)c1=O` (some centres unmarked) [Compound 93]: the concentration for a half-maximal effect (EC50) is under 0.5 µM.

Turning to `CCC(C)n1ncn(-c2ccc(N3CCN(c4ccc(OC[C@@H]5CO[C@](Cc6ccnnc6)(c6ccc(S(C)(=O)=O)cc6)O5)cc4)CC3)cc2)c1=O` (some centres unmarked) [Compound 119], the 50% effective concentration (EC50) lay within 5 to 30 µM.

With `CCC(C)n1ncn(-c2ccc(N3CCN(c4ccc(OC[C@@H]5CO[C@@](Cn6nccn6)(c6ccccc6)O5)c(S(C)(=O)=O)c4)CC3)cc2)c1=O` (some centres unmarked) [Compound 64], the EC50 was in the range of 0.5 to 5 µM.

As to `O=c1n(-c2ccc(N3CCN(c4ccc(OC[C@@H]5CO[C@@](Cn6nccn6)(c6ccc(Cl)cc6Cl)O5)cc4F)CC3)cc2)cnn1CC1CCCC1` [Compound 154], the concentration giving a half-maximal response (EC50) is under 0.5 µM.

Molecule `CCC(C)n1ncn(-c2ccc(N3CCN(c4ccc(OC[C@@H]5CO[C@@](Cn6cccn6)(c6cccc(C#N)c6)O5)cc4)CC3)cc2)c1=O` (some centres unmarked) [Compound 88] displayed an EC50 of 0.5 to 5 µM.

In turn, `CCC(C)n1ncn(-c2ccc(N3CCN(c4ccc(OC[C@@H]5CO[C@@](Cn6nccn6)(c6ncccn6)O5)cc4)CC3)cc2)c1=O` (some centres unmarked) [Compound 38] gave an EC50 of over 30 µM.

The molecule `CCC(C)n1ncn(-c2ccc(N3CCN(c4ccc(OC[C@@H]5CO[C@](Cc6ccnnc6)(c6cccc(OC)c6)O5)cc4)CC3)cc2)c1=O` (some centres unmarked) [Compound 108] returned an EC50 of 0.5 to 5 µM.

As to `CCC(C)n1ncn(-c2ccc(N3CCN(c4ccc(OC[C@@H]5CO[C@@](Cn6nccn6)(c6ccc(Cl)cc6Cl)O5)cc4C#N)CC3)cc2)c1=O` (some centres unmarked) [Compound 56], the concentration for a half-maximal effect (EC50) fell in the range of 0.5 to 5 µM.

As to `CCC(C)n1ncn(-c2ccc(N3CCN(c4ccc(OC[C@@H]5CO[C@@](Cn6nccn6)(c6ccccc6)C5)cc4)CC3)cc2)c1=O` (some centres unmarked) [Compound 143], the 50% effective concentration (EC50) was in the range of 5 to 30 µM.

As for `CCC(C)n1ncn(-c2ccc(N3CCN(c4ccc(OC[C@@H]5CO[C@](Cn6nccn6)(c6ccccc6)O5)cc4)CC3)cc2)c1=O` (some centres unmarked) [Compound 186], the half-maximal effective concentration (EC50) was 5 to 30 µM.

`CCC(C)n1ncn(-c2ccc(N3CCN(c4ccc(OC[C@H]5CO[C@](Cn6nccn6)(c6ccccc6)O5)cc4)CC3)cc2)c1=O` (some centres unmarked) [Compound 181] registered an EC50 of under 0.5 µM.

For the molecule `CC[C@H](C)n1ncn(-c2ccc(N3CCN(c4ccc(OC[C@H]5CO[C@](Cn6nccn6)(c6ccccc6)O5)cc4)CC3)cc2)c1=O` [Compound 183, 4-(4-(4-(4-(((2R,4S)-2-((2H-1,2,3-triazol-2-yl)methyl)-2-phenyl-1,3-dioxolan-4-yl)methoxy)phenyl)piperazin-1-yl)phenyl)-(S)-1-sec-butyl-1H-1,2,4-triazol-5(4H)-one], the half-maximal effective concentration (EC50) is under 0.5 µM.

As for `CCC(C)n1ncn(-c2ccc(N3CCN(c4ccc(OC[C@@H]5CO[C@](Cc6ccnnc6)(c6ccc(S(N)(=O)=O)cc6)O5)cc4)CC3)cc2)c1=O` (some centres unmarked) [Compound 120], the EC50 is over 30 µM.

In turn, `CCC(C)n1ncn(-c2ccc(N3CCN(c4ccc(OC[C@@H]5CO[C@](Cc6ccnnc6)(c6cccc(C(F)(F)F)c6)O5)cc4)CC3)cc2)c1=O` (some centres unmarked) [Compound 113] yielded an EC50 of 0.5 to 5 µM.

`CCC(C)n1ncn(-c2ccc(N3CCN(c4ccc(OC[C@@H]5CO[C@@](Cn6nccn6)(c6cc(C#N)ccc6Cl)O5)cc4)CC3)cc2)c1=O` (some centres unmarked) [Compound 27] registered a concentration for a half-maximal effect (EC50) of 5 to 30 µM.

For `CCC(C)n1ncn(-c2ccc(N3CCN(c4ccc(OC[C@@H]5CO[C@@](Cn6cccn6)(c6ccc(C)cc6)O5)cc4)CC3)cc2)c1=O` (some centres unmarked) [Compound 97], the 50% effective concentration (EC50) was in the range of 5 to 30 µM.

On to `CCC(CC)n1ncn(-c2ccc(N3CCN(c4ccc(OC[C@H]5CO[C@](Cn6cccn6)(c6ccc(C#N)cc6C)O5)cc4)CC3)cc2)c1=O` [Compound 177], for which the EC50 fell in the range of 0.5 to 5 µM.

The molecule `CCC(CC)n1ncn(-c2ccc(N3CCN(c4ccc(OC[C@H]5CO[C@](Cn6nccn6)(c6ccccc6)C5)cc4C#N)CC3)cc2)c1=O` [Compound 144] came in with a 50% effective concentration (EC50) of over 30 µM.

For the molecule `CCC(CC)n1ncn(-c2ccc(N3CCN(c4ccc(OC[C@@H]5CO[C@@](Cn6nccn6)(c6ccc(Cl)cc6Cl)O5)cc4)CC3)cc2)c1=O` [Compound 13], the 50% effective concentration (EC50) fell in the range of 0.5 to 5 µM.

Consider `CCC(C)n1ncn(-c2ccc(N3CCN(c4ccc(OC[C@@H]5CO[C@@](Cn6nccn6)(c6ccccc6)O5)cc4CN)CC3)cc2)c1=O` (some centres unmarked) [Compound 67], for which the EC50 is 0.5 to 5 µM.

On to `CCC(C)n1ncn(-c2ccc(N3CCN(c4ccc(OC[C@@H]5CO[C@](Cc6ccnnc6)(c6ccc(C(F)(F)F)cc6)O5)cc4)CC3)cc2)c1=O` (some centres unmarked) [Compound 114], for which the concentration for a half-maximal effect (EC50) was under 0.5 µM.

`CCC(C)n1ncn(-c2ccc(N3CCN(c4ccc(OC[C@@H]5CO[C@@](Cn6cccn6)(c6ccccc6C(N)=O)O5)cc4)CC3)cc2)c1=O` (some centres unmarked) [Compound 101] returned an EC50 of 5 to 30 µM.

Regarding `CCC(C)n1ncn(-c2ccc(N3CCN(c4ccc(OC[C@@H]5CO[C@@](Cn6nccn6)(c6ccc(Cl)cc6Br)O5)cc4)CC3)cc2)c1=O` (some centres unmarked) [Compound 31], the EC50 was under 0.5 µM.

For `CCC(C)n1ncn(-c2ccc(N3CCN(c4ccc(OC[C@@H]5CO[C@](Cc6ccnnc6)(c6ccc(Cl)cc6)O5)cc4)CC3)cc2)c1=O` (some centres unmarked) [Compound 103], the EC50 was 0.5 to 5 µM.

Turning to `CC[C@@H](C)n1ncn(-c2ccc(N3CCN(c4ccc(OC[C@@H]5CO[C@](Cn6nccn6)(c6ccccc6)O5)cc4)CC3)cc2)c1=O` [Compound 189], the EC50 lay within 5 to 30 µM.

Molecule `CCC(C)n1ncn(-c2ccc(OC[C@@H]3CO[C@@](Cn4nccn4)(c4ccc(Cl)cc4Cl)O3)cc2)c1=O` (some centres unmarked) [Compound 6] came in with an EC50 of over 30 µM.

In turn, `CCC(C)n1ncn(-c2ccc(N3CCN(c4ccc(OC[C@@H]5CO[C@](Cc6ccnnc6)(c6ccccc6OC)O5)cc4)CC3)cc2)c1=O` (some centres unmarked) [Compound 107] had a half-maximal effective concentration (EC50) of 0.5 to 5 µM.

Take `CCC(C)n1ncn(-c2ccc(N3CCN(c4ccc(OC[C@@H]5CO[C@@](Cc6ccnnc6)(c6ccccc6C(F)(F)F)O5)cc4)CC3)cc2)c1=O` (some centres unmarked) [Compound 132]: the concentration for a half-maximal effect (EC50) was under 0.5 µM.

As to `CC(C)N1CCN(c2ccc(OC[C@@H]3CO[C@@](Cn4nccn4)(c4ccc(Cl)cc4Cl)O3)cc2)CC1` [Compound 5], the EC50 was in the range of 5 to 30 µM.

Staying with this test, now noted: imaging and western based activity.
Molecule `CCC(C)n1ncn(-c2ccc(N3CCN(c4ccc(OC[C@@H]5CO[C@](Cn6nccn6)(c6ccccc6)O5)cc4)CC3)cc2)c1=O` (some centres unmarked) [Compound 187] came in with a 50% effective concentration (EC50) of 5 to 30 µM.

“cis (±)-4-(4-(4-(4-((4-((2H-1,2,3-triazol-2-yl)methyl)-4-(2,4-difluorophenyl)-1,3-dioxolan-2-yl)methoxy)phenyl)piperazin-1-yl)phenyl)-1-sec-butyl-1H-1,2,4-triazol-5(4H)-one [Compound 199]” yielded an EC50 of under 0.5 µM.
